Experimental data taken from ChEMBL document CHEMBL5260832, “Hepatoprotective natural triterpenoids” (Eur J Med Chem, 2018).

What was measured:
Rattus norvegicus [1] = assay: Hepatoprotective activity in ethanol-induced rat model of liver injury assessed as reduction in AST level at 4 mg/kg relative to control; assay type: functional; parameters: scale not given: the % may be the effect or the level left
Rattus norvegicus [2] = assay: Hepatoprotective activity in GaIN-induced rat model of liver injury assessed as reduction in ALT level at 4 mg/kg relative to control; assay type: functional; parameters: scale not given: the % may be the effect or the level left
Rattus norvegicus [3] = assay: Hepatoprotective activity in ethanol-induced rat model of liver injury assessed as reduction in ALT level at 4 mg/kg relative to control; assay type: functional; parameters: scale not given: the % may be the effect or the level left
Mus musculus [4] = organism: Mus musculus; assay: Hepatoprotective activity in CCl4-induced toxicity in liver injured mouse assessed as increase in inhibition of liver damage relative to control; assay type: functional; parameters: concentration or dose not given beside the values
[5] = Hepatotoxicity in CCl4-induced liver damage in ICR mouse model assessed as reduction in sGPT level at 10 mg/kg relative to control; assay type: toxicity, organism-based; parameters: scale not given: the % may be the effect or the level left; conditions: in vivo
[6] = Hepatotoxicity in CCl4-induced liver damage in ICR mouse model assessed as reduction in sGOT level at 10 mg/kg relative to control; assay type: toxicity, organism-based; parameters: scale not given: the % may be the effect or the level left; conditions: in vivo
Rattus norvegicus [7] = assay: Hepatoprotective activity in CCl4-induced rat model of liver injury assessed as reduction in ALT level at 4 mg/kg relative to control; assay type: functional; parameters: scale not given: the % may be the effect or the level left
[8] = Hepatotoxicity in GaIN-induced rat model of liver injury assessed as reduction in ALT level at 4 mg/kg relative to control; assay type: toxicity, organism-based; parameters: scale not given: the % may be the effect or the level left; conditions: in vivo
HepG2 [9] = assay: Hepatoprotective activity against H2O2-induced cell death in human HepG2 cells assessed as elevated level AST at 65.7 uM; assay type: functional
HepG2 [10] = assay: Hepatoprotective activity against H2O2-induced cell death in human HepG2 cells assessed as elevated level ALT at 65.7 uM; assay type: functional
Mus musculus [11] = organism: Mus musculus; assay: Hepatoprotective activity in mouse model of CCl4-induced liver injury assessed as reduction in AST level at 100 microg/ml (reference value: 5.9 U/mL); assay type: functional; conditions: dose 100 µg/ml
Mus musculus [12] = organism: Mus musculus; assay: Hepatoprotective activity in CCl4-induced toxicity in liver injured mouse assessed as increase in inhibition of liver damage at 50 uM relative to control; assay type: functional; parameters: scale not given: the % may be the effect or the level left
Mus musculus [13] = organism: Mus musculus; assay: Hepatoprotective activity in GaIN-induced toxicity in liver injured mouse assessed as increase in inhibition of liver damage at 50 uM relative to control; assay type: functional; parameters: scale not given: the % may be the effect or the level left
Mus musculus [14] = assay: Hepatoprotective activity in mouse model of D-GaIN/LPS-induced liver injury assessed as inhibition of beta-glucuronidase secretion at […] relative to control; assay type: functional; parameters: scale not given: the % may be the effect or the level left; conditions: dose 10 µg/ml
Huh-7 [15] = assay: Hepatoprotective activity in human Huh-7 cells assessed as increasing in GSH level; assay type: functional
Huh-7 [16] = assay: Hepatoprotective activity in human Huh-7 cells assessed as reduction in AST level; assay type: functional; parameters: scale not given: the % may be the effect or the level left
Huh-7 [17] = assay: Hepatoprotective activity in human Huh-7 cells assessed as reduction in ALT level; assay type: functional; parameters: scale not given: the % may be the effect or the level left
Rattus norvegicus [18] = assay: Hepatoprotective activity in CCl4-induced rat model assessed as elevated level of GOT at 20 mg/kg relative to control; assay type: functional
Rattus norvegicus [19] = assay: Hepatoprotective activity in CCl4-induced rat model assessed as elevated level of ALP at 10 mg/kg relative to control; assay type: functional
Rattus norvegicus [20] = assay: Hepatoprotective activity in CCl4-induced rat model assessed as elevated level of ALP at 20 mg/kg relative to control; assay type: functional
Rattus norvegicus [21] = assay: Hepatoprotective activity in CCl4-induced rat model assessed as elevated level of GPT at 20 mg/kg relative to control; assay type: functional
Rattus norvegicus [22] = assay: Hepatoprotective activity in CCl4-induced rat model assessed as elevated level of GPT at 10 mg/kg relative to control; assay type: functional
Rattus norvegicus [23] = assay: Hepatoprotective activity in CCl4-induced rat model assessed as elevated level of GOT at 10 mg/kg relative to control; assay type: functional
Rattus norvegicus [24] = assay: Hepatoprotective activity in CCl4-induced rat model assessed as elevated level of bilirubin at 10 mg/kg relative to control; assay type: functional
Rattus norvegicus [25] = assay: Hepatoprotective activity in CCl4-induced rat model assessed as elevated level of bilirubin at 20 mg/kg relative to control; assay type: functional
Mus musculus [26] = organism: Mus musculus; assay: Hepatoprotective activity in mouse liver homogenate assessed as inhibition of iron/ascorbate lipid peroxidation at 5.0 mg/mL relative to control; assay type: functional; parameters: scale not given: the % may be the effect or the level left
Hepatocyte [27] = assay: Hepatoprotective activity against D-GaIN/TNFalpha induced cell death in mouse hepatocytes assessed as cell survival rate at 200 uM relative to control; assay type: functional
Hepatocyte [28] = assay: Hepatoprotective activity against D-GaIN/TNFalpha induced cell death in mouse hepatocytes assessed as cell survival rate at 100 uM relative to control; assay type: functional
Hepatocyte [29] = assay: Hepatoprotective activity against D-GaIN/TNFalpha induced cell death in mouse hepatocytes assessed as cell survival rate at 50 uM relative to control; assay type: functional
[30] = Antiproliferative activity against rat HSC-T6 assessed as reduction in cell viability at 100 uM measured at 48 hrs by MTT assay relative to control; assay type: functional

C[C@H]1[C@H](C)CC[C@]2(C(=O)O)CC[C@]3(C)C(=CC[C@@H]4[C@@]5(C)C[C@@H](O)[C@H](O)[C@@](C)(CO)[C@@H]5CC[C@]43C)[C@H]12 [ASIATIC ACID]
Activity (Rattus norvegicus [1]): 25%
Activity (Rattus norvegicus [2]): 23.1%
Activity (Rattus norvegicus [3]): 20%
Activity (Mus musculus [4]): 1%

C=C(C)[C@@H]1CC[C@]2(C)CC[C@]3(C)[C@H](CC[C@@H]4[C@@]5(C)CC[C@@H](OC(=O)CCCCCCCCCCCCCCC)C(C)(C)[C@@H]5CC[C@]43C)[C@@H]12
Activity [5]: 6.9%
Activity [6]: 9.2%

COC(=O)[C@]12CC[C@@H](C)[C@H](C)[C@H]1C1=CC[C@@H]3[C@@]4(C)C[C@@H](OC)[C@H](OC(C)=O)[C@@](C)(COC(C)=O)[C@@H]4CC[C@@]3(C)[C@]1(C)CC2
Activity (Rattus norvegicus [7]): 33.3%

COC(=O)[C@]12CC[C@@H](C)[C@H](C)[C@H]1C1=CC[C@@H]3[C@@]4(C)C[C@@H](OCc5ccccc5)C5OC(C)(C)OC[C@@]5(C)[C@@H]4CC[C@@]3(C)[C@]1(C)CC2 (stereo not given in full)
Activity [8]: 33.6%

C[C@H]1C(=O)CC[C@@H]2[C@]1(C)CC[C@H]1[C@@]2(C)CC[C@@]2(C)[C@@H]3CC(C)(C)CC[C@]3(C)CC[C@]12C [FRIEDELINE]
Activity (HepG2 [9]): 67.5%
Activity (HepG2 [10]): 30.8%

C[C@H]1[C@H](C)CC[C@]2(C)CC[C@]3(C)C(=CC[C@@H]4[C@@]5(C)CC[C@H](O)C(C)(C)[C@@H]5CC[C@]43C)[C@H]12
Activity (Mus musculus [11]): 40.22 U/ml

C[C@H]1[C@H](C)CC[C@]2(C(=O)O)CC[C@]3(C)C(=CC[C@@H]4[C@@]5(C)CC(=O)[C@H](O)[C@@](C)(CO)[C@@H]5CC[C@]43C)[C@H]12
Activity (Mus musculus [12]): 54.3%
Activity (Mus musculus [13]): 49%

CC(C)=CCC[C@]1(C)CC[C@]2(C)[C@H]3CC=C4[C@@H](CC[C@H](O)C4(C)C)[C@]3(C)CC[C@@]2(C)C1
Activity (Mus musculus [14]): 57%

C[C@H]1[C@H](C)CC[C@]2(C(=O)O)CC[C@]3(C)C(=CC[C@@H]4[C@@]5(C)CC[C@H](O)C(C)(C)[C@@H]5CC[C@]43C)[C@H]12 [URSOLIC ACID]
Activity (Huh-7 [15]): 2.37 mg
Activity (Huh-7 [16]): 37.5%
Activity (Huh-7 [17]): 37.5%

CC(C)[C@@H]1CC[C@@H]2C3=CC[C@@H]4[C@@]5(C)CC[C@@H](O)C(C)(C)[C@@H]5CC[C@@]4(C)[C@]3(C)CC[C@]21C(=O)O
Activity (Rattus norvegicus [18]): 21%
Activity (Rattus norvegicus [19]): 5%
Activity (Rattus norvegicus [20]): 32%
Activity (Rattus norvegicus [21]): 13%
Activity (Rattus norvegicus [22]): 24%
Activity (Rattus norvegicus [23]): 13%
Activity (Rattus norvegicus [24]): 30%
Activity (Rattus norvegicus [25]): 24%

C=C(C)[C@@H]1CC[C@]2(C(=O)O)CC[C@]3(C)[C@H](CC[C@@H]4[C@@]5(C)CC[C@H](O)C(C)(C)[C@@H]5CC[C@]43C)[C@@H]12 [BETULINIC ACID]
Activity (Mus musculus [26]): 52.7%
Activity (Hepatocyte [27]): 23%
Activity (Hepatocyte [28]): 26.1%
Activity (Hepatocyte [29]): 39.2%

C[C@H]1[C@@H](O)CC[C@@H]2[C@]1(C)CC[C@H]1[C@@]2(C)CC[C@@]2(C)[C@@H]3CC(C)(C)CC[C@]3(C)CC[C@]12C [EPIFRIEDELINOL]
Activity [30]: 61%
